Source: patent publication US20230090111A1, “CXCL8 INHIBITOR AND PHARMACEUTICAL COMPOSITION THEREOF FOR USE IN THE TREATMENT OF CANCER-RELATED FATIGUE” (Dompe' farmaceutici SpA, priority 2020, published 2023)
“And” between values parts separate entries of the source, which are not always exact repeats. Equal entries are not always repeated. “Also recorded” adds a separate entry of the source.

Assays:
[1] = tested on: dogs with osteosarcoma metastatic to the lungs; test: Prospective pilot study: QoL of dogs given doxorubicin, oclacitinib and ladarixin; type: in vivo; parameters: mqol gooddavs / mqol_sleeps / mqol_depressed / mqol_eats / mqol_drinks / mqol_moves / mqol_lays / mqol_active / mqol_play / mqol_presence / mqol_enjoyslife: scale not given here; settings: for mqol gooddavs / mqol_active / mqol_depressed / mqol_drinks / mqol_eats / mqol_enjoyslife / mqol_lays / mqol_moves / mqol_play / mqol_presence / mqol_sleeps: with doxorubicin+oclacitinib
Method: A prospective pilot study was conducted to evaluate whether the addition of ladarixin to doxorubicin and oclacitinib mitigates the adverse event profile associated with doxorubicin which includes fatigue, lethargy, anorexia and a general decrease in quality of life (QoL).
A cohort of 5 dogs with osteosarcoma metastatic to the lungs was studied.
In this study, dogs received doxorubicin at […] IV, oclacitinib at 0.4-0.6 mg/kg orally twice per day (label dose) and ladarixin at 15 mg/kg twice per day.
A well validated QoL for dogs with cancer was used (Giuffrida et al., J Am Vet Med Assoc, 252(9): 1073-1083) to assess changes in performance status and quality of life during the course of the study. The QoL values were reported as a numerical value and tracked over each study visit. All owners were required to maintain a diary to chart the administration of medications, note any changes in behaviour, document appetite and energy levels, and identify any other changes in constitutional changes. Owners also recorded a daily performance status (scale from 0 to 5).

[2] = tested on: cancer-related fatigue (CRF); settings: A. Spathis et al., 2014; cited from earlier work
[3] = oclacitinib alone; cited from earlier work
[4] = tested on: patients with metastatic triple negative breast cancer (TNBC); test: Randomized, double-blind, placebo-controlled phase 2 study (FRIDA): fatigue as treatment emergent adverse event (NCI-CTCAE 4.03); type: in vivo, human
Method: The study was conducted with 56 sites actively screening patients in the United States of America, Italy, France, Belgium, Spain, Czech Republic and Poland.
Two sub-groups of patients were studied: newly diagnosed metastatic patients and patients that had relapsed following a prior (neo)adjuvant chemotherapy regimen. Amongst other inclusion criteria, to be able to participate in the study, subjects were to have a Zubrod/ECOG Performance Status of 0 or 1 (0=Fully active; no performance restrictions 1=Strenuous physical activity restricted; fully ambulatory and able to carry out light work).
There was no limit to study treatment duration and patients remained in the study until disease progression, withdrawal of consent or unacceptable toxicity, whichever occurred first.
Investigators reported any adverse events experienced by study patients according to the NCI-CTCAE version 4.03. Toxicity was defined according to the grading scale for each parameter. According to this scale, the presence and intensity of fatigue is defined as follows: • Grade 1: Fatigue relieved by rest • Grade 2: Fatigue not relieved by rest, limiting instrumental ADL • Grade 3: Fatigue not relieved by rest, limiting self care ADL • where instrumental ADL refers to preparing meals, shopping for groceries or clothes, using the telephone, managing money, and the like and self care ADL refer to bathing, dressing and undressing, feeding self, using the toilet, taking medications, but not bedridden.
The distributions of fatigue as a treatment emergent adverse event (TEAE) irrespective of relationship with study treatment were compared among treatment groups using the Chi-squared test (Table 1).

[5] = D0, one value per dog (Record ID 1-5)
[6] = D7, one value per dog (Record ID 1-5)
[7] = D14, one value per dog (Record ID 1-5)
[8] = D21, one value per dog (Record ID 3-5)
[9] = judged by investigators under double-blind conditions, Chi-squared P 0.020
[10] = paclitaxel plus reparixin (Group 1) or placebo (Group 2), Chi-squared P 0.003

C[C@@H](C(=O)NS(C)(=O)=O)c1ccc(OS(=O)(=O)C(F)(F)F)cc1 [ladarixin]
total QoL score ([1]; 5 dogs, ladarixin with doxorubicin and oclacitinib): over 100 | mqol gooddavs [1, 5]: 5 (4×) and 4 | mqol_active [1, 5]: 5 (3×) and 2 and 4 | mqol_depressed [1, 5]: 5 (3×) and 4 (2×) | mqol_drinks [1, 5]: 5 (4×) and 4 | mqol_eats [1, 5]: 5 (4×) and 4 | mqol_enjoyslife [1, 5]: 5 (4×) and 4 | mqol_lays [1, 5]: 5 (4×) and 2 | mqol_moves [1, 5]: 5 (4×) and 2 | mqol_play [1, 5]: 5 (4×) and 4 | mqol_presence [1, 5]: 5 (4×) and 4 | mqol_sleeps [1, 5]: 4 and 3 and 5 (3×) | mqol gooddavs [1, 6]: 4 and 5 (4×) | mqol_active [1, 6]: 5 | mqol_depressed [1, 6]: 4 and 5 (4×) | mqol_drinks [1, 6]: 5 | mqol_eats [1, 6]: 5 (4×) and 3 | mqol_enjoyslife [1, 6]: 5 | mqol_lays [1, 6]: 4 and 5 (4×) | mqol_moves [1, 6]: 4 and 5 (4×) | mqol_play [1, 6]: 5 (4×) and 4 | mqol_presence [1, 6]: 5 | mqol_sleeps [1, 6]: 4 (2×) and 2 and 1 and 5 | mqol gooddavs [1, 7]: 5 | mqol_active [1, 7]: 5 (3×) and 4 and 3 | mqol_depressed [1, 7]: 5 (4×) and 4 | mqol_drinks [1, 7]: 5 | mqol_eats [1, 7]: 5 | mqol_enjoyslife [1, 7]: 5 | mqol_lays [1, 7]: 5 (4×) and 4 | mqol_moves [1, 7]: 5 (2×) and 4 (3×) | mqol_play [1, 7]: 5 | mqol_presence [1, 7]: 5 (4×) and 4 | mqol_sleeps [1, 7]: 5 (2×) and 4 and 3 (2×) | mqol gooddavs [1, 8]: 5 (2×) and 4 | mqol_active [1, 8]: 5 (2×) and 2 | mqol_depressed [1, 8]: 5 (2×) and 4 | mqol_drinks [1, 8]: 5 (2×) and 4 | mqol_eats [1, 8]: 5 (2×) and 4 | mqol_enjoyslife [1, 8]: 5 (2×) and 4 | mqol_lays [1, 8]: 5 (2×) and 2 | mqol_moves [1, 8]: 4 and 3 and 5 | mqol_play [1, 8]: 5 (2×) and 4 | mqol_presence [1, 8]: 5 (2×) and 4 | mqol_sleeps [1, 8]: 5 (2×) and 3 | Effect on severity of fatigue associated with doxorubicin treatment (in words) ([1]; ladarixin added to doxorubicin and oclacitinib): reduced the severity of the known fatigue induced by the treatment with doxorubicin; also recorded: reduced the severity of the known fatigue associated to the treatment

NC(=O)C[S+]([O-])C(c1ccccc1)c1ccccc1 (stereo not drawn) [modafimil]
Benefit over placebo in CRF (in words) [2]: no benefit over placebo

CNS(=O)(=O)C[C@H]1CC[C@H](N(C)c2ncnc3[nH]ccc23)CC1 [oclacitinib]
Ability to reduce severity of fatigue associated with chemotherapy (in words) [3]: not able to reduce the severity of fatigue associated with chemotherapy

CC(=O)O[C@H]1C(=O)[C@@]2(C)[C@H]([C@H](OC(=O)c3ccccc3)[C@]3(O)C[C@H](OC(=O)[C@H](O)[C@@H](NC(=O)c4ccccc4)c4ccccc4)C(C)=C1C3(C)C)[C@]1(OC(C)=O)CO[C@@H]1C[C@@H]2O [paclitaxel]
Subjects with severe (Grade 3) treatment-related fatigue, number ([4]; in vivo): two | Subjects with severe (Grade 3) treatment-related fatigue, percent ([4]; in vivo): 3.3% | Fatigue as TEAE at least possibly related to study treatment: No, number of subjects [4, 9]: 43 | Fatigue as TEAE at least possibly related to study treatment: No, percent of subjects [4, 9]: 71.7% | Fatigue as TEAE at least possibly related to study treatment: Yes, number of subjects [4, 9]: 17 subjects | Fatigue as TEAE at least possibly related to study treatment: Yes, percent of subjects [4, 9]: 28.3% | Fatigue as TEAE irrespective of relationship with study treatment: Yes, number of subjects ([4]; paclitaxel 80 mg/m2 i.v. plus reparixin 1200 mg t.i.d. (Group 1) or placebo (Group 2), Chi-squared P 0.003): 26 subjects | Fatigue as TEAE irrespective of relationship with study treatment: No, number of subjects [4, 10]: 34 | Fatigue as TEAE irrespective of relationship with study treatment: No, percent of subjects [4, 10]: 56.7% | Fatigue as TEAE irrespective of relationship with study treatment: Yes, percent of subjects [4, 10]: 43.3%

CC(C)Cc1ccc([C@@H](C)C(=O)NS(C)(=O)=O)cc1 [reparixin, R-(−)-2-(4-isobutylphenyl)propionyl methansulfonamide]
Severity of fatigue in patients experiencing fatigue (NCI-Common Toxicity Criteria Grade) ([4]; all patients experiencing fatigue, mild and moderate): 1-2 Grade | Effect on incidence and severity of fatigue (in words) ([4]; paclitaxel plus reparixin compared with paclitaxel and placebo): beneficial effect on incidence and severity of cancer-related fatigue; also recorded: significantly lower incidence and severity of treatment-related fatigue
